In PubChem BioAssay (NCI):
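Method: 48-hour compound exposure of cells in 96-well plates, five concentrations, linear interpolation of endpoints. TGI marks complete inhibition of growth.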

Tests used:
Experiment in all cases: NCI-60 cell line screen, 48 h
MDA-MB-231 breast = test system: MDA-MB-231 breast
T-47D breast = test system: T-47D breast
NCI-H460 lung = test system: NCI-H460 lung
MCF7 breast = test system: MCF7 breast
SNB-75 CNS = test system: SNB-75 CNS
HT29 colon = test system: HT29 colon
M14 melanoma = test system: M14 melanoma
NCI-H522 lung = test system: NCI-H522 lung
MDA-N = test system: MDA-N
HL-60(TB) leukemia = test system: HL-60(TB) leukemia
SK-MEL-28 melanoma = test system: SK-MEL-28 melanoma
IGROV1 ovarian = test system: IGROV1 ovarian
NCI-H23 lung = test system: NCI-H23 lung
SR leukemia = test system: SR leukemia
OVCAR-4 ovarian = test system: OVCAR-4 ovarian
KM12 colon = test system: KM12 colon
OVCAR-8 ovarian = test system: OVCAR-8 ovarian
RXF 393 renal = test system: RXF 393 renal
SF-295 CNS = test system: SF-295 CNS
HOP-92 NSCLC = test system: HOP-92 NSCLC
OVCAR-5 ovarian = test system: OVCAR-5 ovarian
BT-549 breast = test system: BT-549 breast
LOX IMVI melanoma = test system: LOX IMVI melanoma
SK-MEL-5 melanoma = test system: SK-MEL-5 melanoma
HS 578T breast = test system: HS 578T breast
786-0 renal = test system: 786-0 renal
SW-620 colon = test system: SW-620 colon
COLO 205 colon = test system: COLO 205 colon
MDA-MB-435 = test system: MDA-MB-435
HCC-2998 colon = test system: HCC-2998 colon
OVCAR-3 ovarian = test system: OVCAR-3 ovarian
UACC-257 melanoma = test system: UACC-257 melanoma
RPMI-8226 leukemia = test system: RPMI-8226 leukemia
MOLT-4 leukemia = test system: MOLT-4 leukemia
SNB-19 CNS = test system: SNB-19 CNS
TK-10 renal = test system: TK-10 renal
NCI-H226 lung = test system: NCI-H226 lung
SK-MEL-2 melanoma = test system: SK-MEL-2 melanoma
K-562 leukemia = test system: K-562 leukemia
MALME-3M melanoma = test system: MALME-3M melanoma
A549 NSCLC = test system: A549 NSCLC
UO-31 renal = test system: UO-31 renal
ACHN renal = test system: ACHN renal
U251 CNS = test system: U251 CNS
UACC-62 melanoma = test system: UACC-62 melanoma
SF-268 CNS = test system: SF-268 CNS
DU-145 prostate = test system: DU-145 prostate
SN12C renal = test system: SN12C renal
CCRF-CEM leukemia = test system: CCRF-CEM leukemia
HCT-15 colon = test system: HCT-15 colon
CAKI-1 renal = test system: CAKI-1 renal
HCT-116 colon = test system: HCT-116 colon
A498 renal = test system: A498 renal
EKVX NSCLC = test system: EKVX NSCLC
HOP-62 NSCLC = test system: HOP-62 NSCLC
PC-3 prostate = test system: PC-3 prostate
SF-539 CNS = test system: SF-539 CNS
SK-OV-3 ovarian = test system: SK-OV-3 ovarian

CN1CCN(C(=S)N(C(=O)c2cccs2)C2CCCCC2)CC1
TGI (MDA-MB-231 breast): > 100 µM | TGI (T-47D breast): > 100 µM | TGI (NCI-H460 lung): > 100 µM | TGI (MCF7 breast): > 100 µM | TGI (SNB-75 CNS): > 100 µM | TGI (HT29 colon): > 100 µM | TGI (M14 melanoma): > 100 µM | TGI (NCI-H522 lung): > 100 µM | TGI (MDA-N): > 100 µM | TGI (HL-60(TB) leukemia): 54.2 µM | TGI (SK-MEL-28 melanoma): > 100 µM | TGI (IGROV1 ovarian): > 100 µM | TGI (NCI-H23 lung): > 100 µM | TGI (SR leukemia): > 100 µM | TGI (OVCAR-4 ovarian): > 100 µM | TGI (KM12 colon): > 100 µM | TGI (OVCAR-8 ovarian): > 100 µM | TGI (RXF 393 renal): > 100 µM | TGI (SF-295 CNS): > 10 µM | TGI (HOP-92 NSCLC): > 100 µM | TGI (OVCAR-5 ovarian): > 100 µM | TGI (BT-549 breast): > 100 µM | TGI (LOX IMVI melanoma): > 100 µM | TGI (SK-MEL-5 melanoma): > 100 µM | TGI (HS 578T breast): > 100 µM | TGI (786-0 renal): > 100 µM | TGI (SW-620 colon): > 100 µM | TGI (COLO 205 colon): > 100 µM | TGI (MDA-MB-435): > 100 µM | TGI (HCC-2998 colon): > 100 µM | TGI (OVCAR-3 ovarian): > 100 µM | TGI (UACC-257 melanoma): > 100 µM | TGI (RPMI-8226 leukemia): > 100 µM | TGI (MOLT-4 leukemia): > 10 µM | TGI (SNB-19 CNS): > 100 µM | TGI (TK-10 renal): > 100 µM | TGI (NCI-H226 lung): > 100 µM | TGI (SK-MEL-2 melanoma): > 100 µM | TGI (K-562 leukemia): > 100 µM | TGI (MALME-3M melanoma): > 100 µM | TGI (A549 NSCLC): > 100 µM | TGI (UO-31 renal): > 100 µM | TGI (ACHN renal): > 100 µM | TGI (U251 CNS): > 100 µM | TGI (UACC-62 melanoma): > 100 µM | TGI (SF-268 CNS): > 100 µM | TGI (DU-145 prostate): > 100 µM | TGI (SN12C renal): > 100 µM | TGI (CCRF-CEM leukemia): > 10 µM | TGI (HCT-15 colon): > 100 µM

O=C(c1cc(Cl)ccc1Cl)N1CCN(c2cccc(Cl)c2)CC1
TGI (MDA-MB-231 breast): 20.3 µM | TGI (T-47D breast): > 100 µM | TGI (NCI-H460 lung): 31.5 µM | TGI (MCF7 breast): > 100 µM | TGI (SNB-75 CNS): > 100 µM | TGI (CAKI-1 renal): > 100 µM | TGI (HT29 colon): 27.1 µM | TGI (M14 melanoma): > 100 µM | TGI (NCI-H522 lung): 30.4 µM | TGI (MDA-N): 5.62 µM | TGI (HL-60(TB) leukemia): > 100 µM | TGI (SK-MEL-28 melanoma): 81.9 µM | TGI (IGROV1 ovarian): 56.8 µM | TGI (NCI-H23 lung): > 100 µM | TGI (SR leukemia): > 100 µM | TGI (HCT-116 colon): 24.1 µM | TGI (A498 renal): 34.8 µM | TGI (OVCAR-4 ovarian): > 100 µM | TGI (KM12 colon): 20 µM | TGI (OVCAR-8 ovarian): 38.9 µM | TGI (EKVX NSCLC): 96.5 µM | TGI (RXF 393 renal): 27.5 µM | TGI (SF-295 CNS): 25.6 µM | TGI (OVCAR-5 ovarian): > 100 µM | TGI (BT-549 breast): 23.1 µM | TGI (LOX IMVI melanoma): 25.5 µM | TGI (SK-MEL-5 melanoma): 19.3 µM | TGI (HS 578T breast): 65.8 µM | TGI (786-0 renal): 34 µM | TGI (HOP-62 NSCLC): 61.5 µM | TGI (SW-620 colon): 94.8 µM | TGI (HCC-2998 colon): 39.5 µM | TGI (OVCAR-3 ovarian): 38 µM | TGI (UACC-257 melanoma): 50.3 µM | TGI (RPMI-8226 leukemia): > 100 µM | TGI (MOLT-4 leukemia): 37 µM | TGI (SNB-19 CNS): > 100 µM | TGI (TK-10 renal): > 100 µM | TGI (NCI-H226 lung): 42.6 µM | TGI (K-562 leukemia): 16.2 µM | TGI (MALME-3M melanoma): 28.6 µM | TGI (A549 NSCLC): 42.6 µM | TGI (UO-31 renal): 58.9 µM | TGI (PC-3 prostate): 6.22 µM | TGI (ACHN renal): 76.5 µM | TGI (U251 CNS): 62 µM | TGI (SF-268 CNS): > 100 µM | TGI (SF-539 CNS): 31.4 µM | TGI (DU-145 prostate): > 100 µM | TGI (SN12C renal): 20.2 µM | TGI (CCRF-CEM leukemia): 59.7 µM | TGI (HCT-15 colon): > 100 µM

C=C1C(O)C23CCC4C(C(=O)O)(C(=O)O)CC(OC5OC(CO)C(O)C(OC(=O)CCc6ccccc6)C5NC(=O)CC(C)C)CC4(C)C2CCC1(O)C3 (centres undefined)
TGI (MDA-MB-231 breast): > 100 µM | TGI (T-47D breast): > 100 µM | TGI (NCI-H460 lung): > 100 µM | TGI (SNB-75 CNS): > 100 µM | TGI (CAKI-1 renal): > 100 µM | TGI (HT29 colon): > 100 µM | TGI (M14 melanoma): > 100 µM | TGI (NCI-H522 lung): > 100 µM | TGI (MDA-N): > 100 µM | TGI (HL-60(TB) leukemia): > 100 µM | TGI (SK-MEL-28 melanoma): > 100 µM | TGI (IGROV1 ovarian): > 100 µM | TGI (NCI-H23 lung): > 100 µM | TGI (SR leukemia): > 100 µM | TGI (HCT-116 colon): > 100 µM | TGI (A498 renal): > 100 µM | TGI (OVCAR-4 ovarian): > 100 µM | TGI (KM12 colon): > 100 µM | TGI (OVCAR-8 ovarian): > 100 µM | TGI (EKVX NSCLC): > 100 µM | TGI (RXF 393 renal): > 100 µM | TGI (SF-295 CNS): > 100 µM | TGI (HOP-92 NSCLC): > 100 µM | TGI (OVCAR-5 ovarian): > 100 µM | TGI (BT-549 breast): > 100 µM | TGI (LOX IMVI melanoma): > 100 µM | TGI (SK-MEL-5 melanoma): > 100 µM | TGI (HS 578T breast): > 100 µM | TGI (786-0 renal): > 100 µM | TGI (HOP-62 NSCLC): > 100 µM | TGI (SW-620 colon): > 100 µM | TGI (COLO 205 colon): > 100 µM | TGI (MDA-MB-435): > 100 µM | TGI (HCC-2998 colon): > 100 µM | TGI (OVCAR-3 ovarian): > 100 µM | TGI (UACC-257 melanoma): > 100 µM | TGI (RPMI-8226 leukemia): > 100 µM | TGI (MOLT-4 leukemia): > 100 µM | TGI (SNB-19 CNS): > 100 µM | TGI (TK-10 renal): > 100 µM | TGI (NCI-H226 lung): > 100 µM | TGI (SK-MEL-2 melanoma): > 100 µM | TGI (K-562 leukemia): > 100 µM | TGI (MALME-3M melanoma): > 100 µM | TGI (A549 NSCLC): > 100 µM | TGI (UO-31 renal): > 100 µM | TGI (PC-3 prostate): > 100 µM | TGI (SK-OV-3 ovarian): > 100 µM | TGI (ACHN renal): > 100 µM | TGI (U251 CNS): > 100 µM | TGI (UACC-62 melanoma): > 100 µM | TGI (SF-268 CNS): > 100 µM | TGI (SF-539 CNS): > 100 µM | TGI (DU-145 prostate): > 100 µM | TGI (SN12C renal): > 100 µM | TGI (CCRF-CEM leukemia): > 100 µM | TGI (HCT-15 colon): > 100 µM
